How the values were obtained:
B-RAF G466V = target: T1, B-RAF G466V (Homo sapiens, UniProt P15056, G466V); assay: Target protein degradation, assay B: T-Rex 293 cells, HA-B-RAF_G466V, 96 well format; format: cell-based; conditions: T-Rex 293 HA-B-RAF_G466V cells, 24 hours, Examples 1-82
T1 construct: expressed in transfected cells; host or cells: T-Rex 293 cells (Invitrogen #R71007)
Description: B. T-Rex 293 Cells (96 Well Format)
(§1) T-Rex 293 cells were purchased from Invitrogen (#R71007), and stably transfected with a pcDNA4/TO_HA-B-RAF_G466V construct, using 400 ug Zeocin for selection. G466V cells are plated in ulbecco's Modified Eagle Medium (DMEM; Gibco #11965118) containing 10% fetal bovine serum (FBS; Gibco #16000044) and 0.75 ng/mL doxycycline (Selleckchem #4163) at a density of 5,000 cells/well in 50 μl on poly-D-lysine (PDL) coated, black clear bottom 96-well plates (Corning #354640) and incubated for 24 hours at 37° C. with 5% CO2. The following day 50 ul of tested compound was added at 2× concentration in DMEM with a final concentration ranging from 30 nM to 3 pM in 0.1% dimethylsulfoxide (DMSO), and incubated for 24 hours at 37° C. with 5% CO2. At the end of the experimental treatment, the media was flicked off and cells washed once with phosphate-buffered saline (PBS)++(PBS with CaCl and MgCl) and gently replacing with 200 μl PBS++ per well. The PBS++ was removed and 50 uL 4% paraformaldehyde (PFA; EMS #15710) in PBS++ was added, and incubate at room temperature for 15 minutes. Cells were washed once with PBS++ and 50 uL 0.1% Triton X-100 (Fisher #BP151-500) in PBS++ was added. Plate was incubate for 5 minutes at room temperature. Cells were was once with PBS++. Cells were blocked with 100 uL Licor blocking buffer (Licor #927-50000) for 1 hour at room temperature. Next, 50 uL of HA antibody (CST #3724) at 1:1000 in Licor blocking buffer was added, and the plate icubate overnight at 4° C. The plates were parafilmed to prevent evaporation. Plate was washed three times with 200 uL PBS++. Fifty microliters of HCS secondary antibody solution [1:1000 Hoechst (Invitrogen #H3570), 1:1000 phalloidin (Invitrogen #A22287) and 1:5000 Alexa fluor (Invitrogen #A11008)] was added and incubated for 1 hour. Plate was wash three times with 200 uL PBS++, and imaged on a high content reader (ImageXpress Micro XLS, Molecular Devices).
(§2) The concentration of an exemplary compound that leads to half maximal degradation (DC50) as well as the maximum degradation observed (Dmax, conventionally expressed as a percentage of control) is shown below in Table 2.

B-RAF V600E = target: T2, B-RAF V600E (Homo sapiens, UniProt P15056, V600E); assay: Target protein degradation, assay A: T-Rex 293 cells, HA-B-RAF_V600E, 96 well format; format: cell-based; conditions: T-Rex 293 HA-B-RAF_V600E cells, 24 hours, Examples 1-82
T2 construct: expressed in transfected cells; host or cells: T-Rex 293 cells (Invitrogen #R71007)
T2 sequence (P15056 whole entry V600E): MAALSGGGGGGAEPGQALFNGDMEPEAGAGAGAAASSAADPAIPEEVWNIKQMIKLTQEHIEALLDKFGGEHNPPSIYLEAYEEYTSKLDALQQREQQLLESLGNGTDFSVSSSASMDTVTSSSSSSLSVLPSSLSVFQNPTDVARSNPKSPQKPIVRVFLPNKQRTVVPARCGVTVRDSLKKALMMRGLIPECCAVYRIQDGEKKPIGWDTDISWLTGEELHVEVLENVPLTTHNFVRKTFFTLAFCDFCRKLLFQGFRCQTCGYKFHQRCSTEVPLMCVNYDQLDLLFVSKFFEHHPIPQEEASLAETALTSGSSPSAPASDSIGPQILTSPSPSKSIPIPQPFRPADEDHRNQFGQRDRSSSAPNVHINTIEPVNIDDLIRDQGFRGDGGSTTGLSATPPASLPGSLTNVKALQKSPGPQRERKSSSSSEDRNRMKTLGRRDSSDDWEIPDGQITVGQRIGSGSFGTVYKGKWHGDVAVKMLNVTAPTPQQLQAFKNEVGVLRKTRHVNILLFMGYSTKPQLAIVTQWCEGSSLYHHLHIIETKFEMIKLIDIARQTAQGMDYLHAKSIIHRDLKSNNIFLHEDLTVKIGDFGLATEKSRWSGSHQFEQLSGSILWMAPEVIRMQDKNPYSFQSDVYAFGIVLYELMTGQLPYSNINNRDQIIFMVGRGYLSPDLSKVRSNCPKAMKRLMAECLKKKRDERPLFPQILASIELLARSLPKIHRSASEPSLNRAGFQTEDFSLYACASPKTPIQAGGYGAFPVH
Description: A. T-Rex 293 Cells (96 well format)
as §1, with “pcDNA4/TO_HA-B-RAF_V600E” for “pcDNA4/TO_HA-B-RAF_G466V”, “V600e” for “G466V”, “1” for “0.75”, “1 μM to 0.1” for “30”, “nM” for “nM to 3 pM”
as §2

T1 sequence (P15056 whole entry G466V): as the sequence (P15056 whole entry V600E) above, with G466V, E600V counted along it

Row | SMILES | DC50 (B-RAF G466V) [nM] | Dmax (B-RAF G466V) [%] | DC50 (B-RAF V600E) [nM] | Dmax (B-RAF V600E) [%]
1 | N#Cc1c(NS(=O)(=O)N2CC[C@@H](F)C2)ccc(F)c1Oc1ccc2ncn(-c3ccc(N4CCN(c5ccc6c(c5)CN(C5CCC(=O)NC5=O)C6=O)CC4)cc3)c(=O)c2c1 (stereo partly drawn) [Example 5, (3R)—N-[2-cyano-3-[3-[4-[4-[2-(2,6-dioxo-3-piperidyl)-1-oxo-isoindolin-5-yl]piperazin-1-yl]phenyl]-4-oxo-quinazolin-6-yl]oxy-4-fluoro-phenyl]-3-fluoro-pyrrolidine-1-sulfonamide] | > 30 |  | > 500 | 
2 | N#Cc1c(NS(=O)(=O)N2CC[C@@H](F)C2)ccc(F)c1Oc1ccc2ncn(-c3ccc(N4CCN(c5ccc6c(c5)C(=O)N(C5CCC(=O)NC5=O)C6=O)CC4)cc3)c(=O)c2c1 (stereo partly drawn) [Example 71, (3R)-N-(2-cyano-3-{[3-(4-{4-[2-(2,6-dioxopiperidin-3-yl)-1,3-dioxo-2,3-dihydro-1H-isoindol-5-yl]piperazin-1-yl}phenyl)-4-oxo-3,4-dihydroquinazolin-6-yl]oxy}-4-fluorophenyl)-3-fluoropyrrolidine-1-sulfonamide] | > 30 |  | > 500 | 
3 | N#Cc1c(NS(=O)(=O)N2CC[C@@H](F)C2)ccc(F)c1Oc1ccc2ncn(-c3ccc(N4CCN(C(=O)CC5(O)CCN(c6ccc(C7CCC(=O)NC7=O)cc6F)CC5)CC4)cc3)c(=O)c2c1 (stereo partly drawn) [Example 66, (3R)-N-{2-cyano-3-[(3-(4-[4-(2-{1-[4-(2,6-dioxopiperidin-3-yl)-2-fluorophenyl]-4-hydroxypiperidin-4-yl}acetyl)piperazin-1-yl]phenyl}-4-oxo-3,4-dihydroquinazolin-6-yl)oxy]-4-fluorophenyl}-3-fluoropyrrolidine-1-sulfonamide] | > 30 |  | 50 to 500 | 35 to 70
4 | N#Cc1c(NS(=O)(=O)N2CC[C@@H](F)C2)ccc(F)c1Oc1ccc2ncn(-c3cnc(N4CCN(c5ccc6c(c5)C(=O)N(C5CCC(=O)NC5=O)C6=O)CC4)nc3)c(=O)c2c1 (stereo partly drawn) [Example 31, (3R)-N-(2-cyano-3-{[3-(2-{4-[2-(2,6-dioxopiperidin-3-yl)-1,3-dioxo-2,3-dihydro-1H-isoindol-5-yl]piperazin-1-yl}pyrimidin-5-yl)-4-oxo-3,4-dihydroquinazolin-6-yl]oxy}-4-fluorophenyl)-3-fluoropyrrolidine-1-sulfonamide] | > 30 |  | > 500 | 
5 | N#Cc1c(NS(=O)(=O)N2CC[C@@H](F)C2)ccc(F)c1Oc1ccc2ncn(-c3ccc(N4CCN(CC5CCN(c6ccc7c(c6)CN(C6CCC(=O)NC6=O)C7=O)CC5)CC4)nc3)c(=O)c2c1 (stereo partly drawn) [Example 3, (3R)—N-[2-cyano-3-[3-[6-[4-[[1-[2-(2,6-dioxo-3-piperidyl)-1-oxo-isoindolin-5-yl]-4-piperidyl]methyl]piperazin-1-yl]-3-pyridyl]-4-oxo-quinazolin-6-yl]oxy-4-fluoro-phenyl]-3-fluoro-pyrrolidine-1-sulfonamide] | 1 to 10 | 35 to 70 | 50 to 500 | ≤ 35
6 | N#Cc1c(NS(=O)(=O)N2CC[C@@H](F)C2)ccc(F)c1Oc1ccc2ncn(-c3ccc(N4CCN(CC5CN(c6ccc7c(c6)CN([C@H]6CCC(=O)NC6=O)C7=O)C5)CC4)cc3)c(=O)c2c1 [Example 76, (3R)—N-(2-cyano-3-{[3-(4-{4-[(1-{2-[(3S)-2,6-dioxopiperidin-3-yl]-1-oxo-2,3-dihydro-1H-isoindol-5-yl}azetidin-3-yl)methyl]piperazin-1-yl}phenyl)-4-oxo-3,4-dihydroquinazolin-6-yl]oxy}-4-fluorophenyl)-3-fluoropyrrolidine-1-sulfonamide] | 1 to 10 | ≤ 35 | 5 to 50 | 35 to 70
7 | N#Cc1c(NS(=O)(=O)N2CC[C@@H](F)C2)ccc(F)c1Oc1ccc2ncn(-c3ccc(N4CCN(CC5CCN(c6ccc(C7CCC(=O)NC7=O)cc6F)CC5)CC4)cc3)c(=O)c2c1 (stereo partly drawn) [Example 13, (3R)-N-{2-cyano-3-[(3-{4-[4-({1-[4-(2,6-dioxopiperidin-3-yl)-2-fluorophenyl]piperidin-4-yl}methyl)piperazin-1-yl]phenyl}-4-oxo-3,4-dihydroquinazolin-6-yl)oxy]-4-fluorophenyl}-3-fluoropyrrolidine-1-sulfonamide] | > 30 |  | 5 to 50 | 35 to 70

Further lines, results first:

Row | DC50 (B-RAF G466V) [nM] | Dmax (B-RAF G466V) [%] | DC50 (B-RAF V600E) [nM] | Dmax (B-RAF V600E) [%] | SMILES
8 | 1 to 10 | 35 to 70 | 5 to 50 | 35 to 70 | Cn1c(=O)n(C2CCC(=O)NC2=O)c2ccc(N3CCC(CN4CCN(c5ccc(-n6cnc7ccc(Oc8c(F)ccc(NS(=O)(=O)N9CC[C@@H](F)C9)c8C#N)cc7c6=O)cc5)CC4)CC3)cc21 (stereo partly drawn) [Example 78, (3R)—N-{2-cyano-3-[(3-{4-[4-({1-[1-(2,6-dioxopiperidin-3-yl)-3-methyl-2-oxo-2,3-dihydro-1H-1,3-benzodiazol-5-yl]piperidin-4-yl}methyl)piperazin-1-yl]phenyl}-4-oxo-3,4-dihydroquinazolin-6-yl)oxy]-4-fluorophenyl}-3-fluoropyrrolidine-1-sulfonamide]
9 | 1 to 10 | 35 to 70 | 50 to 500 | 35 to 70 | N#Cc1c(NS(=O)(=O)N2CC[C@@H](F)C2)ccc(F)c1Oc1ccc2ncn(-c3ccc(N4CCN(CC5CCN(c6ccc([C@H]7CCC(=O)NC7=O)cc6F)CC5)CC4)cc3)c(=O)c2c1 (single isomer, unassigned) [Example 80, (3R)—N-(2-cyano-3-{[3-(4-{4-[(1-{4-[(3R*)-2,6-dioxopiperidin-3-yl]-2-fluorophenyl}piperidin-4-yl)methyl]piperazin-1-yl}phenyl)-4-oxo-3,4-dihydroquinazolin-6-yl]oxy}-4-fluorophenyl)-3-fluoropyrrolidine-1-sulfonamide]
10 | 10 to 30 | 35 to 70 | > 500 | 35 to 70 | N#Cc1c(NS(=O)(=O)N2CC[C@@H](F)C2)ccc(F)c1Oc1ccc2ncn(C3CCN(CCN4CCN(c5ccc6c(c5)CN(C5CCC(=O)NC5=O)C6=O)CC4)CC3)c(=O)c2c1 (stereo partly drawn) [Example 7, (3R)-N-[2-cyano-3-({3-[1-(2-{4-[2-(2,6-dioxopiperidin-3-yl)-1-oxo-2,3-dihydro-1H-isoindol-5-yl]piperazin-1-yl}ethyl)piperidin-4-yl]-4-oxo-3,4-dihydroquinazolin-6-yl}oxy)-4-fluorophenyl]-3-fluoropyrrolidine-1-sulfonamide]
11 | 1 to 10 | ≤ 35 | 50 to 500 | 35 to 70 | N#Cc1c(NS(=O)(=O)N2CC[C@@H](F)C2)ccc(F)c1Oc1ccc2ncn(-c3ccc(N4CCC(OC5CCN(c6ccc7c(c6)CN(C6CCC(=O)NC6=O)C7=O)CC5)CC4)cc3)c(=O)c2c1 (stereo partly drawn) [Example 82, (3R)—N-{2-cyano-3-[(3-{4-[4-({1-[2-(2,6-dioxopiperidin-3-yl)-1-oxo-2,3-dihydro-1H-isoindol-5-yl]piperidin-4-yl}oxy)piperidin-1-yl]phenyl}-4-oxo-3,4-dihydroquinazolin-6-yl)oxy]-4-fluorophenyl}-3-fluoropyrrolidine-1-sulfonamide]
